Data taken from the supplement of paper PMC5412046.
Where a name gives a salt, the structure may show the parent alone.

Columns and labels:
SB.mhdgc-1 = assay: AC50 for growth inhibition (viability) (log10 M); higher = less potent; conditions: SB.mhdgc-1 (hereditary c.1380delA CDH1 gastric cancer)
Method in brief: (§1)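 In 1536-well plates, each well held 500 patient-derived gastric cancer cells (hereditary or sporadic) in 5 μL medium. Compound in DMSO, 23 nL per well, was pinned in 11 threefold dilutions starting at a final 46 μM. Following 48 h of exposure, cells had CellTiter-Glo for 30 min at room temperature before ViewLux luminescence reading. Only high-quality curve classes from four-parameter fits of DMSO-normalised viability gave the log half-maximal activity concentration.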

SB.msgc-1 = assay: as above; conditions: SB.msgc-1 (sporadic gastric cancer)
Method in brief: as §1

Compound | AC50 for growth inhibition (log10 M) (SB.mhdgc-1) | AC50 for growth inhibition (log10 M) (SB.msgc-1)
COc1cc([C@@H]2c3cc4c(cc3[C@@H](O)C3COC(=O)C32)OCO4)cc(OC)c1O (stereo partly specified) [4-Demethylepipodophyllotoxin] | -7.38 | -6.63
NC/1=N/C(=O)N(/C=N1)[C@@H]2O[C@H](CO)[C@@H](O)[C@H]2O [5-Azacitidine] | -4.88 | -5.53
CC(=O)O/N=C1/C(=C2\C(=O)Nc3cc(Br)ccc32)Nc2ccccc21 [6-Bromoindirubin-3'-acetoxime] | -5.13 | -4.93
CN[C@@H]1C[C@H]2O[C@@](C)([C@@H]1OC)n1c3ccccc3c3c4c(c5c6ccccc6n2c5c31)C(=O)N[C@H]4O [7-Hydroxystaurosporine] | -6.28 | -5.93
Nc1ncnc2c1nc(Cl)n2[C@@H]1O[C@H](CO)[C@@H](O)[C@H]1O [8-Cl-Ado] | -4.78 | -4.68
CC(=O)O[C@@]12CO[C@@H]1C[C@H](O)[C@]3(C)[C@@H]2[C@H](OC(=O)C4=CC=CC=C4)[C@]5(O)C[C@H](O)/C(=C(/[C@@H](O)C3=O)C5(C)C)C [10-Deacetylbaccatin] | -5.83 | -5.38
CC[C@@]1(O)C(=O)OCC/2=C1/C=C3\N(CC4=CC5=CC(=CC=C5N=C34)O)C2=O [10-hydroxycamptothecin] | -7.83 | -7.33
CCCCC(C)(C)[C@H](O)/C=C/[C@H]1[C@H](O)CC(=O)[C@@H]1C/C=C\CCCC(=O)O [16,16-dimethyl PGE2] | -4.68 | -4.63
COC[C@H]1OC(=O)C2=COC3=C2[C@@]1(C)\C4=C(\[C@@H]5CC[C@H](O)[C@@]5(C)C[C@H]4OC(C)=O)C3=O [17_-hydroxy Wortmannin] | -5.53 | -5.58
C[C@](O)(CS(=O)(=O)c1ccc(F)cc1)C(=O)Nc1ccc(C#N)c(C(F)(F)F)c1 [(R)-Bicalutamide] | -6.33 | -6.03
Cc1nc(NC(=O)N2CCC[C@H]2C(N)=O)sc1-c1csc(C(C)(C)C)n1 [A-66] | -5.38 | -6.53
CC1(C)CCC(=C(\C1)C2=CC=C(Cl)C=C2)/CN3CCN(CC3)C4=CC(=C(C=C4)C(=O)N[S+]([O-])(=O)C5=CC=C(NCC6CCOCC6)C(=C5)[N+]([O-])=O)OC7=CN=C8[NH]C=CC8=C7 [ABT-199] | -4.73 | -4.88
CN(C)CC[C@H](CSc1ccccc1)Nc1ccc([S+](=O)([O-])NC(=O)c2ccc(N3CCN(Cc4ccccc4-c4ccc(Cl)cc4)CC3)cc2)cc1[N+](=O)[O-] [ABT-737] | -5.43 | -5.03
Cc1c(NC(=O)OC[C@@H]2COCCN2)cn2ncnc(Nc3ccc4c(cnn4Cc4cccc(F)c4)c3)c12 [AC-480] | -6.53 | -6.68
O=C(CCCCCCNC(=O)c1cnc(N(c2ccccc2)c2ccccc2)nc1)NO [ACY-1215] | -5.23 | -5.08
CC(C)(C)c1cc(C=C(C#N)C#N)cc(Br)c1O [AG-1024] | -5.03 | -5.43
COc1cc2ncnc(Nc3cccc(Cl)c3)c2cc1OC [AG-1478] | -7.43 | -6.23
O=C(O)c1ccc2cc(-c3ccc(O)c(C45CC6CC(CC(C6)C4)C5)c3)ccc2c1 [AHPN] | -6.48 | -4.83
c1ccc(-c2oc3ncnc(NC[C@@H]4CCCO4)c3c2-c2ccccc2)cc1 [AIM-100] | -5.08 | -5.73
Cc1ccc(C(=O)Nc2cccc(C(F)(F)F)c2)cc1-c1ccc2nc(NCCN3CCOCC3)ncc2c1 [AMG-47a] | -5.28 | -5.03
COC1=C(OCCCN2CCOCC2)C=C3N=CC=C(OC4=CC=C(C=C4F)\C5=C\N=C(\NC6=CC=C(F)C=C6)N(C)C5=O)C3=C1 [AMG-51] | -5.03 | -4.73
CNc1nccc(-c2cccnc2Oc2cc(C(=O)Nc3cccc(C(F)(F)F)c3)ccc2C)n1 [AMG-Tie2-1] | -4.83 | -4.63
CC1=CC=C(C=C1)\C2=N\C3=CC=C(Cl)C=C3OC2 [AR7] | -5.03 | -5.03
CNC(=O)c1ccc(N2C(=S)N(c3cnc(C#N)c(C(F)(F)F)c3)C(=O)C23CCC3)cc1F [ARN-509] | -6.53 | -6.08

Compound | AC50 for growth inhibition (log10 M) (SB.mhdgc-1) | AC50 for growth inhibition (log10 M) (SB.msgc-1)
C[C@H]1[C@@H](CC(C[C@H]2O[C@@H]3O[C@]4(C)CC[C@H]5[C@H](C)CC[C@@H]([C@H]2C)[C@@]35OO4)C[S+](=O)([O-])c2ccc(COC(=O)N(C)C)cc2)O[C@@H]2O[C@]3(C)CC[C@H]4[C@H](C)CC[C@@H]1[C@@]24OO3 [ASR-isobudimer-SO2Ph-4-CH2OC(O)NMe2] | -6.93 | -6.48
C=CC(=O)Nc1ccc2ncnc(Nc3ccc(OCc4cccc(F)c4)c(Cl)c3)c2c1 [AST-1306] | -5.28 | -8.33
CN[C@@H](C)C(=O)N[C@H]1CN(C(=O)CC(C)C)CC[C@H]2CC[C@@H](C(=O)NC(c3ccccc3)c3ccccc3)N2C1=O [AT-406] | -5.63 | -4.98
O=C(NC1CCNCC1)c1n[nH]cc1NC(=O)c1c(Cl)cccc1Cl [AT-7519] | -7.18 | -6.68
Clc1ccc(C2(c3ccc(-c4cn[nH]c4)cc3)CCNCC2)cc1 [AT-7867] | -4.88 | -4.73
O=C(Nc1c[nH]nc1-c1nc2cc(CN3CCOCC3)ccc2[nH]1)NC1CC1 [AT-9283] | -6.18 | -5.38
C=CC(=O)Nc1cc2c(Nc3ccc(F)c(Cl)c3)ncnc2cc1C#CC(C)(C)N1CCN(C)CC1 [AV-412] | -5.53 | -5.08
CC[C@H](CC#N)OC(=O)N[C@@H](C)c1cccc(NC(=O)Nc2ccc(-c3cnco3)c(OC)c2)c1 [AVN-944] | -5.88 | -5.23
Cc1cc(Nc2nc(N[C@@H](C)c3ccc(F)cc3)c(C#N)cc2F)n[nH]1 [AZ-960] | -4.73 | -4.68
NC(=O)Nc1cc(-c2ccc(CN3CCOCC3)cc2)sc1C(N)=O [AZ-TAK1 Inhibitor] | -4.68 | -4.73
CNC(=O)c1cccc(-c2ccc3c(N4CCOC[C@@H]4C)nc(N4CCOC[C@@H]4C)nc3n2)c1 [AZD-2014] | -7.33 | -7.03
NC1(C(=O)N[C@@H](CCO)c2ccc(Cl)cc2)CCN(c2ncnc3[nH]ccc23)CC1 [AZD-5363] | -5.23 | -5.08
C[C@@H](NC1=CC=CC=C1C(O)=O)C/2=C/C(=C\N3C(=O)/C=C(\N=C23)N4CCOCC4)C [AZD-6482] | -4.82 | -4.87
CN(C)C(=O)c1ccc([S+](=O)([O-])c2ccc(NC(=O)[C@@](C)(O)C(F)(F)F)c(Cl)c2)cc1 [AZD-7545] | -4.88 | -4.73
COc1ccc(-c2ccc3c(N4CCOC[C@@H]4C)nc(N4CCOC[C@@H]4C)nc3n2)cc1CO [AZD-8055] | -7.83 | -5.98
CN1C(=O)\C(=C/C(=C1/NC2=C(F)C=C(I)C=C2)C(=O)NOCCO)C [AZD-8330] | -4.78 | -7.58
CN(C)Cc1c(C(=O)NCCOc2ccc(C(=O)NO)cc2)oc2ccccc12 [Abexinostat] | -5.13 | -5.93
CC[C@@]1(O)C[C@H](O[C@H]2C[C@H](N(C)C)[C@H](O[C@H]3C[C@H](O)[C@H](O[C@H]4CCC(=O)[C@H](C)O4)[C@H](C)O3)[C@H](C)O2)c2c(cc3c(c2O)C(=O)c2c(O)cccc2C3=O)[C@H]1C(=O)OC [Aclarubicin] | -6.78 | -6.28
COc1ccc(-c2ccc3cc(C(=O)O)ccc3c2)cc1C12CC3CC(CC(C3)C1)C2 [Adapalene] | -5.28 | -5.23
CC(C)(C)C(=O)OCOP(=O)(COCCn1cnc2c(N)ncnc21)OCOC(=O)C(C)(C)C [Adefovir dipivoxil] | -6.93 | -5.28
Nc1ncnc2c1ncn2[C@@H]1O[C@H](CO)[C@@H](O)[C@H]1O [Adenosine] | -6.08 | -5.58
CN(C)CC(C)(C)CNc1nn2c(-c3ccccc3)nnc2cc1C1CCC1 [Akt-I-1] | -6.33 | -4.68
CCCCC[C@H](O)/C=C/[C@H]1[C@H](O)CC(=O)[C@@H]1CCCCCCC(=O)O [Alprostadil] | -5.13 | -4.68
CO[C@H]1/C=C\C=C(\C)C(=O)NC2=CC(=O)C(NCCN(C)C)=C(C[C@@H](C)C[C@H](OC)[C@H](O)[C@@H](C)/C=C(/C)[C@@H]1OC(N)=O)C2=O [Alvespimycin hydrochloride] | -7.38 | -6.83
